# Reference: patent US20220324770A1, “NITRIFICATION INHIBITORS” (The University of Melbourne, priority 2019, published 2022)
# Tests used:
# Terang soil = test: Soil microcosm incubation (nitrification of applied ammonium), Terang soil; details: for Nitrified NH4+—N (%) Day 3 / Nitrified NH4+—N (%) Day 7 / Nitrified NH4+—N (%) Day 14 / Nitrified NH4+—N (%) Day 28: Terang soil pH 6.5, 25° C., L-DMPP 1.5 mol %; for Nitrified NH4+—N (%) Day 3: compounds 10 mol % of applied N, (NH4)2SO4 100 mg N per kg soil; for Nitrified NH4+—N (%) Day 7 / Nitrified NH4+—N (%) Day 14 / Nitrified NH4+—N (%) Day 28: compounds 10 mol %
# Description: (§1) The soil used in this study was collected from four different locations in Victoria, Australia: (i) a wheat cropping soil from Horsham (36° 45′S, 142° 07′ E), (ii) a rotational cropping soil from Dahlen (36° 37′S, 142° 09′ E), (iii) a vegetable growing soil from Clyde (38° 08′S, 145° 20′ E), and (iv) a pasture soil from Terang (38° 15′S, 142° 52′E). In addition, a sugarcane cropping soil from South Johnstone in northern Queensland (17° 34′S, 145° 57′ E) was also studied. The water content of the soil was calculated before commencing each experiment, from samples that were oven-dried to constant weight. The soil's water-filled pore space (WFPS) was in the range 52%-61%, which is within the recommended 50-70% range for microbial activity due to oxygen and nutrient availability (Fichtner, T., et al., Applied Sciences, 2019, 9, 496).
# (§2) Soil microcosm incubations were carried out in 250 ml polypropylene specimen containers (Sarstedt, Germany), containing 18.24 g oven dry-weight equivalent of soil. Microcosms were re-wetted and pre-incubated at the test temperature for seven days to revive soil microbial activity. Following pre-incubation, the remaining volume to reach the desired water-filled pore spaces (WFPS %) was applied as one of the following treatment solutions; (NH4)2SO4(Control), (NH4)2SO4+DMPP, or (NH4)2SO4+one of Compounds 1-23. Each treatment was applied in triplicate per soil type, so that n=3 at each time point.
# (§3) Treatment solutions were prepared such that each microcosm received (NH4)2SO4 at a rate of 100 mg N per kg soil, Compounds 1-23 at 10 mol % of applied N, or DMPP at one of 1.5, 3.6 or 10 mol % of applied N, referred to as L-DMPP, M-DMPP or H-DMPP respectively.
# (§4) The microcosms were incubated for 0, 3, 7, 14, 21 or 28 days, where day 0 samples were extracted following 1-hour incubation post-treatment. Soil microcosms were aerated and moisture levels were replenished based on weight loss every few days throughout the incubation period.
# (§5) At the end of each incubation period, soil microcosms were destructively sampled by treatment with 2M KCl (100 mL). After shaking for 1 hour, soil-KCl solutions were filtered (Whatman 42) before storing the filtrates at −20° C. until the conclusion of the experiment. All KCl extracts were then analysed by Segmented Flow Analysis (San++, Skalar, Breda, The Netherlands) for the concentration of nitrogen from ammonium (NH4^+—N) and nitrogen from NO3 and NO2 (NOx^−—N) after appropriate dilutions. Results are reported as the mean of three replicates, errors reported are standard errors of the mean.
# (§6) Nitrification calculations were performed as previously reported (Aulakh, M., et al., Biology and Fertility of Soils 2001, 33, 258-263; Mahmood, T., et al., Soil Research 2017, 55, 715-722) without correction for the initial baseline concentrations of NH4^+—N or NO3^− N in the untreated soil. For each treatment nitrified NH4^+—N (%) was calculated according to eqn. 1:
# (§7) where [NH4^+—N]0 is the NH4^+—N concentration (in mg N kg^−1 soil) of the soil on day 0 and [NH4^+—N]t is the NH4^+—N concentration (in mg N kg^−1 soil) of the soil at a given time point t.
# Horsham soil = test: Soil microcosm incubation (nitrification of applied ammonium), Horsham soil
# Description: as §1, §2, §3, §4, §5, §6, §7
# (§8) NOx^−—N accumulation rates (mg NOx^−—N/kg soil/day) over the 28-day incubation experiments were calculated for each treatment as in the following (eqn. 2):
# (§9) [NOx^−—N]t=0 and [NOx^−—N]t=28 are the combined concentrations of nitrite (NO2) and nitrate (NO3) in the soil (in mg N kg^−1 soil) on day 0 and day 28, respectively.
# Dahlen soil = test: Soil microcosm incubation (nitrification of applied ammonium), Dahlen soil; details: for Nitrified NH4+—N (%) Day 3 / Nitrified NH4+—N (%) Day 7 / Nitrified NH4+—N (%) Day 14 / Nitrified NH4+—N (%) Day 21 / Nitrified NH4+—N (%) Day 28: 10 mol %
# Description: as §1, §2, §3, §4, §5, §6, §7, §8, §9
# South Johnstone soil = test: Soil microcosm incubation (nitrification of applied ammonium), South Johnstone soil; details: for Nitrified NH4+—N (%) Day 3 / Nitrified NH4+—N (%) Day 7 / Nitrified NH4+—N (%) Day 14 / Nitrified NH4+—N (%) Day 21 / Nitrified NH4+—N (%) Day 28: 10 mol %; for effectiveness compared to treatment with DMPP (higher NH4+—N, lower NOx−—N) / retaining NH4+—N vs DMPP / retaining NH4+—N and slowing NOx−—N growth vs fertilised control: South Johnstone soil; for effectiveness compared to treatment with DMPP (higher NH4+—N, lower NOx−—N): 25° C.; for Nitrified NH4+—N (%) Day 28 / effectiveness compared to treatment with DMPP (higher NH4+—N, lower NOx−—N) / retaining NH4+—N and slowing NOx−—N growth vs fertilised control: day 28; for retaining NH4+—N vs DMPP / retaining NH4+—N and slowing NOx−—N growth vs fertilised control: 35° C.
# Description: as §1, §2, §3, §4, §5, §6, §7
# [1] = Horsham soil pH 8.8, 25° C., 10 mol %
# [2] = Horsham soil pH 8.8, 35° C., 10 mol %
# [3] = Table 4, Dahlen soil pH 7.3, 25° C.
# [4] = Table 4, Dahlen soil pH 7.3, 35° C.
# [5] = South Johnstone soil pH 5.0, 25° C., negative = NH4+—N higher than day 0 (mineralisation)
# [6] = South Johnstone soil pH 5.0, 25° C.
# [7] = South Johnstone soil pH 5.0, 35° C.
# [8] = Table 5, Dahlen soil pH 7.3, 25° C.
# [9] = Table 5, Dahlen soil pH 7.3, 35° C.
smiles,measurement,setting,value
"CCCCCc1cn(CCCC)nn1 [Compound 1, 1-butyl-4-pentyl-1H-1,2,3-triazole]",Nitrified NH4+—N (%) Day 3,Terang soil,13.6 ± 3.1%
same,Nitrified NH4+—N (%) Day 7,Terang soil,43.1 ± 3.7%
same,Nitrified NH4+—N (%) Day 14,Terang soil,85.1 ± 4.5%
same,Nitrified NH4+—N (%) Day 28,Terang soil,100 ± 4.2%
"CCCCc1cn(CCCC)nn1 [Compound 2, 1,4-butyl-1H-1,2,3-triazole]",Nitrified NH4+—N (%) Day 3,"Horsham soil; Horsham soil pH 8.8, 25° C., inhibitors 10 mol % of applied N",12.2 ± 8.6%
same,Nitrified NH4+—N (%) Day 7,Horsham soil; [1],17.9 ± 6.9%
same,Nitrified NH4+—N (%) Day 14,Horsham soil; [1],44.5 ± 7.2%
same,Nitrified NH4+—N (%) Day 21,Horsham soil; [1],66.6 ± 8.9%
same,Nitrified NH4+—N (%) Day 28,Horsham soil; [1],90.4 ± 9.7%
same,Nitrified NH4+—N (%) Day 3,Horsham soil; [2],−3.3 ± 5.9%
same,Nitrified NH4+—N (%) Day 7,Horsham soil; [2],8.8 ± 5.5%
same,Nitrified NH4+—N (%) Day 14,Horsham soil; [2],40.3 ± 5.4%
same,Nitrified NH4+—N (%) Day 21,Horsham soil; [2],53.8 ± 9.4%
same,Nitrified NH4+—N (%) Day 28,Horsham soil; [2],71.6 ± 22.9%
same,retaining NH4+ vs uninhibited control treatment,"Horsham soil; Horsham soil, 25° C., after 28 days",to a lesser extent
same,NOx−—N accumulation: effect of temperature (25° C. vs 35° C.),"Horsham soil; Horsham soil, 28-day incubation",lower at the elevated temperature
same,nitrification rates vs uninhibited control treatment,"Horsham soil; Horsham soil, 35° C.",lower nitrification rates than the uninhibited control treatment
same,Nitrified NH4+—N (%) Day 3,Terang soil,27.2 ± 2.0%
same,Nitrified NH4+—N (%) Day 7,Terang soil,64.8 ± 2.3%
same,Nitrified NH4+—N (%) Day 14,Terang soil,95.6 ± 2.8%
same,Nitrified NH4+—N (%) Day 28,Terang soil,100 ± 2.7%
same,retaining NH4+—N vs uninhibited control treatment and DMPP,"Dahlen soil; Dahlen soil, 25° C., after 28 days",performed statistically better
same,retaining NH4+ vs both DMPP treatment and control treatment,"Dahlen soil; Dahlen soil, 35° C., after 28 days",performed statistically better
same,Nitrified NH4+—N (%) Day 3,Dahlen soil; [3],7.5 ± 5.2%
same,Nitrified NH4+—N (%) Day 7,Dahlen soil; [3],21.2 ± 12.2%
same,Nitrified NH4+—N (%) Day 14,Dahlen soil; [3],20.3 ± 21.6%
same,Nitrified NH4+—N (%) Day 21,Dahlen soil; [3],32.9 ± 18.4%
same,Nitrified NH4+—N (%) Day 28,Dahlen soil; [3],37.6 ± 11.0%
same,Nitrified NH4+—N (%) Day 3,Dahlen soil; [4],1.7 ± 3.3%
same,Nitrified NH4+—N (%) Day 7,Dahlen soil; [4],−1.3 ± 1.9%
same,Nitrified NH4+—N (%) Day 14,Dahlen soil; [4],2.0 ± 2.4%
same,Nitrified NH4+—N (%) Day 21,Dahlen soil; [4],29.6 ± 3.6%
same,Nitrified NH4+—N (%) Day 28,Dahlen soil; [4],22.4 ± 1.5%
"CCCCc1cn(CC(=O)OCC)nn1 [Compound 3, 4-Butyl-1H-1,2,3-Triazole-1-Acetic Acid Ethyl Ester]",Nitrified NH4+—N (%) Day 3,South Johnstone soil; [5],−6.3 ± 0.7%
same,Nitrified NH4+—N (%) Day 7,South Johnstone soil; [6],−7.9 ± 0.9%
same,Nitrified NH4+—N (%) Day 14,South Johnstone soil; [6],−12.7 ± 0.7%
same,Nitrified NH4+—N (%) Day 21,South Johnstone soil; [6],−13.9 ± 0.9%
same,Nitrified NH4+—N (%) Day 28,South Johnstone soil; [6],−12.8 ± 0.8%
same,Nitrified NH4+—N (%) Day 3,South Johnstone soil; [7],−11.8 ± 1.5%
same,Nitrified NH4+—N (%) Day 7,South Johnstone soil; [7],−26.2 ± 1.5%
same,Nitrified NH4+—N (%) Day 14,South Johnstone soil; [7],−34.8 ± 0.6%
same,Nitrified NH4+—N (%) Day 21,South Johnstone soil; [7],−28.3 ± 1.4%
same,Nitrified NH4+—N (%) Day 28,South Johnstone soil; [7],−18.6 ± 2.3%
same,"effectiveness compared to treatment with DMPP (higher NH4+—N, lower NOx−—N)",South Johnstone soil,statistically higher effectiveness
same,retaining NH4+—N vs DMPP,South Johnstone soil,performed statistically better than DMPP
same,retaining NH4+—N and slowing NOx−—N growth vs fertilised control,South Johnstone soil,performed statistically better than the fertilised control
same,Nitrified NH4+—N (%) Day 3,Terang soil,15.6 ± 3.0%
same,Nitrified NH4+—N (%) Day 7,Terang soil,29.4 ± 2.6%
same,Nitrified NH4+—N (%) Day 14,Terang soil,47.8 ± 3.5%
same,Nitrified NH4+—N (%) Day 28,Terang soil,99.9 ± 2.8%
same,retaining NH4+—N in the soil compared with the fertilised control,"Terang soil; Terang soil, 25° C.",most effective treatments
"CCCCn1cc(C(C)(C)O)nn1 [Compound 4, 1-butyl-4-(α,α-dimethylmethanol)-1H-1,2,3-triazole]",Nitrified NH4+—N (%) Day 3,Terang soil,27.0 ± 7.5%
same,Nitrified NH4+—N (%) Day 7,Terang soil,67.3 ± 5.2%
same,Nitrified NH4+—N (%) Day 14,Terang soil,96.4 ± 5.8%
same,Nitrified NH4+—N (%) Day 28,Terang soil,100 ± 5.9%
"C=CCn1cc(CCC)nn1 [Compound 18, 1-(2-propen-1-yl)-4-propyl-1H-1,2,3-triazole]",Nitrified NH4+—N (%) Day 3,South Johnstone soil; [5],−6.2 ± 0.9%
same,Nitrified NH4+—N (%) Day 7,South Johnstone soil; [6],−8.5 ± 1.0%
same,Nitrified NH4+—N (%) Day 14,South Johnstone soil; [6],−11.0 ± 1.0%
same,Nitrified NH4+—N (%) Day 21,South Johnstone soil; [6],−12.1 ± 1.4%
same,Nitrified NH4+—N (%) Day 28,South Johnstone soil; [6],−14.9 ± 1.4%
same,Nitrified NH4+—N (%) Day 3,South Johnstone soil; [7],−11.7 ± 2.0%
same,Nitrified NH4+—N (%) Day 7,South Johnstone soil; [7],−28.7 ± 1.5%
same,Nitrified NH4+—N (%) Day 14,South Johnstone soil; [7],−35.8 ± 1.3%
same,Nitrified NH4+—N (%) Day 21,South Johnstone soil; [7],−31.7 ± 1.1%
same,Nitrified NH4+—N (%) Day 28,South Johnstone soil; [7],−16.9 ± 1.8%
same,"effectiveness compared to treatment with DMPP (higher NH4+—N, lower NOx−—N)",South Johnstone soil,statistically higher effectiveness
same,retaining NH4+—N vs DMPP,South Johnstone soil,performed statistically better than DMPP
same,retaining NH4+—N and slowing NOx−—N growth vs fertilised control,South Johnstone soil,performed statistically better than the fertilised control
same,retaining NH4+—N levels by day 28 vs fertilised control (and DMPP),"Dahlen soil; Dahlen soil, 25° C., Table 5 test",performed statistically better
same,retaining NH4+—N vs (NH4)2SO4-treated control by day 28,"Dahlen soil; Dahlen soil, 35° C., Table 5 test",remain highly effective
same,Nitrified NH4+—N (%) Day 3,"Dahlen soil; Table 5 (further comparative test), Dahlen soil pH 7.3, 25° C.",5.1 ± 5.3%
same,Nitrified NH4+—N (%) Day 7,Dahlen soil; [8],4.4 ± 1.1%
same,Nitrified NH4+—N (%) Day 14,Dahlen soil; [8],29.4 ± 2.4%
same,Nitrified NH4+—N (%) Day 21,Dahlen soil; [8],32.1 ± 2.3%
same,Nitrified NH4+—N (%) Day 28,Dahlen soil; [8],40.5 ± 1.5%
same,Nitrified NH4+—N (%) Day 3,Dahlen soil; [9],9.0 ± 4.3%
same,Nitrified NH4+—N (%) Day 7,Dahlen soil; [9],4.5 ± 4.3%
same,Nitrified NH4+—N (%) Day 14,Dahlen soil; [9],26.7 ± 3.9%
same,Nitrified NH4+—N (%) Day 21,Dahlen soil; [9],19.8 ± 5.0%
same,Nitrified NH4+—N (%) Day 28,Dahlen soil; [9],43.0 ± 4.7%
